Assay results reported in patent US20060154990A1, “Use of MEK inhibitors in treating abnormal cell growth” (AGOURON PHARMACEUTICALS, INC., priority 2004, published 2006).
Several values for one entry are separate records, joined by “and”; a condition that tells them apart may be missing. Equal values may be shown once.

Tests used:
[1] = tested on: pERK in BxPC-3 tumors; experiment: Tumor pERK inhibition and PK-PD in BxPC-3 xenograft; type: in vivo, mice; conditions: BxPC-3 tumor, 25 mg/kg oral
[2] = tested on: ERK phosphorylation in tumor cells; experiment: ERK phosphorylation in tumor cells grown in culture with 10% serum; type: cell-based; conditions: read-out: IC50, reducing ERK phosphorylation
[3] = tested on: ZR-75-1 (human tumor of unknown phenotype); experiment: Antitumor activity in ZR-75-1 tumor model; type: in vivo, mice; conditions: ZR-75-1 (unknown phenotype), oral 25 mg/kg once a day for 14 days
[4] = tested on: ERK phosphorylation in MDCK cells; experiment: cells; conditions: Canis lupus familiaris, 1 h, read-out: Cellular IC50
[5] = Metabolites of [14C] Compound 1 in cryopreserved hepatocytes; type: in vitro ADME, human; conditions: [C-14] Compound 1 10 μM, 180 mins
Method: (§1) Incubations were performed in hepatocytes for 3 hours and liver microsomes for 1.5 hours and were stopped with the addition of methanol. HPLC, in conjuction with ionspray 3D iontrap mass spectrometry, and simultaneous radioactive monitoring were used to detect and identify the resulting metabolites.
Metabolite identification of radiolabeled Compound 1 was performed after incubation with rat, dog, monkey and human cryopreserved hepatocytes and liver microsomes. […] Besides glucuronidation, metabolites derived from other clearance pathways are also observed. For instance, M 15 (acid cleavage product) accounts for 11% of the total radioactivity in the human chromatogram.

[6] = Metabolites of [14C] Compound 1 in liver microsomes; type: in vitro ADME, dog; conditions: [C-14] Compound 1 10 μM, 90 mins
Method: as §1
This acid cleavage product is further metabolized to form hydroxylated (M 11, 16% in rat) and hydroxylated, defluorinated products (M 17, 19% in rat).

[7] = Plasma pharmacokinetics after multiple oral doses in advanced cancer patients
Method: Pharmacokinetic data are presented for the first 38 subjects.
Blood samples were collected from patients into a purple-top potassium EDTA Vacutainer tube. Following mixing with gentle inversion (8-10 times), tubes were centrifuged within 20 minutes at 1000×g for 15 minutes, to harvest plasma. Plasma samples were stored at −20° C. until analysis.
The following results are based on preliminary pharmacokinetic parameters from the 38 subjects, estimated using nominal collection times and quality-controlled, non quality-assured bioanalytical data. Pharmacokinetic parameters were determined by the non-compartmental method using WINNONLIN Professional Edition (Version 4.1). […] The maximum observed concentration (Cmax) was obtained by inspection of the concentration data. The time to reach the Cmax was the first time at which Cmax is observed and obtained by inspection of the data. The pre-dose concentration (Ctrough) was obtained by inspection of the concentration data.

[8] = tested on: Ki67 in tumor biopsies; experiment: Immunohistochemical analysis of Ki67 in paired tumor biopsies; type: in vivo, human
Method: The same biopsy specimens, as analyzed for pERK. staining described in Example 10, were also assessed for the amount of Ki67 detectable by immunohistochemistry. The Ki67 marker is considered an indicator of cell proliferation and thus reduction in Ki67 staining levels may be correlated with anti-tumor activity of therapeutic agents. Tissue sections from the paraffin-embedded biopsy tissues were pretreated with Heat-induced Epitope Retrieval (in this case, microwaving for 3 minutes) prior to the Ki67 detection procedure. The antibody used was the mouse monoclonal Ki67/MM1 manufactured by Novocastra Laboratories, Ltd. (catalog number: NCL-Ki67-MM1). […] Scoring of staining intensity was performed in same manner as for pERK assay, with H-scores generated for each section. For Ki67, only 1 section was assayed for each biopsy specimen.

[9] = 1 mg BID, melanoma, individual patient
[10] = 1 mg QD, breast, individual patient
[11] = 1 mg QD, melanoma, individual patients
[12] = 2 mg BID, colon, individual patient
[13] = 2 mg BID, lung, individual patient
[14] = 2 mg BID, melanoma, individual patients
[15] = 4 mg BID, melanoma, individual patient
[16] = 15 mg BID, breast, individual patient
[17] = 15 mg BID, melanoma, individual patient
[18] = 20 mg BID continuous, melanoma, individual patients
[19] = 30 mg BID, melanoma, individual patient
[20] = patients, 1 mg BID, C1D21, fasting, mean
[21] = patients, 1 mg QD, C1D21, fasting, mean
[22] = patients, 2 mg BID, C1D21, fasting, mean
[23] = patients, 15 mg BID, C1D21, fasting, mean
[24] = patients, 20 mg BID continuous, C1D21, fasting, mean

O=C(NOC[C@H](O)CO)c1ccc(F)c(F)c1Nc1ccc(I)cc1F [Compound 1, N-[(R)-2,3-dihydroxy-propoxy]-3,4-difluoro-2-(2-fluoro-4-iodo-phenylamino)-benzamide]
inhibition of pERK expression 24 hours after dosing [1]: 23%
IC50 [2]: 0.59 nM
CR (complete responder) [3]: 7/8
PR (partial responder) [3]: 1/8
T − C [3]: 24.2 days
Tumor Free [3]: 0/8
IC50 [4]: 0.31 nM
% ROI Human [5]: 15.68%
% ROI Dog [6]: 81.16%
Compound 1 AUC(0-24), Day 21 [7, 9]: 275 ng·h/mL
Compound 1 Css, avg [7, 9]: 11 ng/mL
Compound 1 AUC(0-24), Day 21 [7, 10]: 130 ng·h/mL
Compound 1 Css, avg [7, 10]: 5.4 ng/mL
Compound 1 AUC(0-24), Day 21 [7, 11]: 170 ng·h/mL and 112 ng·h/mL
Compound 1 Css, avg [7, 11]: 7.1 ng/mL and 4.7 ng/mL
Compound 1 AUC(0-24), Day 21 [7, 12]: 898 ng·h/mL
Compound 1 Css, avg [7, 12]: 37 ng/mL
Compound 1 AUC(0-24), Day 21 [7, 13]: 943 ng·h/mL
Compound 1 Css, avg [7, 13]: 39 ng/mL
Compound 1 AUC(0-24), Day 21 [7, 14]: 785 ng·h/mL and 2020 ng·h/mL
Compound 1 Css, avg [7, 14]: 33 ng/mL and 84 ng/mL
Compound 1 AUC(0-24), Day 21 ([7]; 4 mg BID, lung, individual patient): 1974 ng·h/mL
Compound 1 AUC(0-24), Day 21 [7, 15]: 1426 ng·h/mL
Compound 1 Css, avg [7, 15]: 59 ng/mL
Compound 1 AUC(0-24), Day 21 [7, 16]: 7680 ng·h/mL
Compound 1 Css, avg [7, 16]: 320.0 ng/mL
Compound 1 AUC(0-24), Day 21 [7, 17]: 2480 ng·h/mL
Compound 1 Css, avg [7, 17]: 103.3 ng/mL
Compound 1 AUC(0-24), Day 21 [7, 18]: 5480 ng·h/mL and 5800 ng·h/mL
Compound 1 Css, avg [7, 18]: 228.3 ng/mL and 241.7 ng/mL
Compound 1 AUC(0-24), Day 21 ([7]; 20 mg BID, melanoma, individual patient): 10560 ng·h/mL
Compound 1 AUC(0-24), Day 21 ([7]; 30 mg BID, colon, individual patient): 12000 ng·h/mL
Compound 1 AUC(0-24), Day 21 [7, 19]: 12920 ng·h/mL
Compound 1 Css, avg [7, 19]: 538.3 ng/mL
overall coefficient of variation (CV) for AUC(0-24) ([7]; fasted state, inter-subject variability): 39%
elimination plasma half-life ([7]; patients): 5 to 16 h
AUC(0-24) [7, 20]: 338 ng·h/mL
Ctrough [7, 20]: 9.17 ng/mL
AUC(0-24) [7, 21]: 143 ng·h/mL
Cmax [7, 21]: 22.3 ng/mL
Ctrough [7, 21]: 3.00 ng/mL
Tmax [7, 21]: 2 h
AUC(0-24) [7, 22]: 1161 ng·h/mL
Ctrough [7, 22]: 27.4 ng/mL
Ctrough ([7]; patients, 4 mg BID, C1D21, fasting, mean): 28.0 ng/mL
AUC(0-24) [7, 23]: 5687 ng·h/mL
Ctrough [7, 23]: 142 ng/mL
AUC(0-24) [7, 24]: 6572 ng·h/mL
Cmax [7, 24]: 989 ng/mL
Ctrough [7, 24]: 83.7 ng/mL
T1/2 [7, 24]: 5.1 h
Tmax [7, 24]: 2 h
Ctrough ([7]; patients, 20 mg BID, C1D21, fasting, mean): 112 ng/mL
Ctrough ([7]; patients, 30 mg BID, C1D21, fasting, mean): 157 ng/mL
average Ki67 decline ([8]; baseline Ki67 scores above 20, 2 mg BID to 30 mg BID (N=13)): 49%
average Ki67 decline ([8]; baseline Ki67 scores above 20, all dose groups (N=18)): 39%
average Ki67 decline ([8]; tumor biopsies Day 15, 1 mg QD to 30 mg BID (N=22)): 31%
average Ki67 decline ([8]; tumor biopsies Day 15, 2 mg BID to 30 mg BID (N=19)): 46%
